Reference: EP3964211A1, “A COMPOSITION COMPRISING AN ASCORBYL PHOSPHATE, NIACINAMIDE AND ALLANTOIN FOR TREATING ACNE” (DSM IP Assets B.V., priority 2020, dated 2022)
Read-outs that look alike come from different tables or passages of the source.

Test system: C. acnes (ATCC reference 11827)
Assay: Cutibacterium acnes Time-Kill assay
Type: cell-based
Procedure: Sodium ascorbyl phosphate, niacinamide, allantoin as well as a combination thereof were screened for their potential anti-microbial activities against C. acnes (ATCC reference 11827). The action of ingredients and combinations thereof is assessed through a miniaturized method performed in liquid media in 96 deepwell plates format. The inhibition of the growth of C. acnes is compared to the same strain growth in corresponding optimal media.
The different ingredients are mixed in growth medium (final volume 2mL) in deepwell plates (n=3). Analysis controls are prepared and used identically to samples : • A growth control of Cutibacterium acnes in the corresponding culture medium; • A growth control of Cutibacterium acnes with ethanol at 2,5 % (v/v) directly in the culture medium; • A growth control of microorganisms with olive oil at 5 % (v/v) directly in the culture medium; • A control consisting of Salicylic acid at 0.5% directly in the culture medium Then, samples are contaminated with C. acnes, inoculum at final concentration of 3,7 x10^5 cfu/mL, […]
To perform the counting, aliquots of the contaminated samples are serially diluted (decimal dilutions) in culture medium in 96-well plates with triphenyltetrazolium and incubated at 37°C ± 2,5°C during 48 h. After 48 h at the optimal growing conditions, the last dilution showing a pink color (triphenyltetrazolium) or turbidity indicates the contamination rate and allow the determination of the corresponding microbial population.

[1] = 2 h, read-out: Log-step reduction (2h)

NC(=O)NC1NC(=O)NC1=O (centres unmarked) [Allantoin, 2,5-dioxo-4-imidazolidinyl urea]
log reduction at 0.5 % (0.5 wt.-% in growth medium, 2h, compared to initial log/cfu of 5.6, n=3, read-out: Log-step reduction (2h)): 0.6

NC(=O)c1cccnc1 [Niacinamide, pyridine-3-carboxamide]
log reduction at 3 % [1]: 0.7

O=C(O)c1ccccc1O [Salicylic acid, reference compound]
log reduction at 0.5 % [1]: 3 | log reduction at 0.5 % (2.5 h, read-out: log-step reduction of C. acnes): 3

O=C1O[C@H]([C@@H](O)CO)C(O)=C1OP(=O)(O)O [Sodium ascorbyl phosphate, sodium ascorbyl phosphate]
log reduction at 3 % (3 wt.-% in growth medium, 2h, compared to initial log/cfu of 5.6, n=3, read-out: Log-step reduction (2h)): 1.7
